Laboratory results as given in patent US20110294736A1, “COMPOUNDS AND METHODS FOR THE TREATMENT OF AUTOIMMUNE AND INFLAMMATORY DISEASE” (THE PROVOST, FELLOWS AND SCHOLARS OF THE HOLY AND UNDIVIDED …, priority 2008, published 2011).

Tested on: BMDC
Assay: IL-12p40, IL-23, IL-12p70 and IL-10 ELISA in BMDC with p38 or ERK inhibitor, Tri-DAP and LPS or CpG
Type: cell-based, murine
Details: ERK inhibitor 5 μM 30 minutes before Tri-DAP 100 μg/ml
Method: BMDC (1×10^6) were pretreated with the p38 inhibitor, SB203580 (5 μM—FIGS. 10-11), or the ERK inhibitor UO126 (5 μM—FIGS. 12-13) for 30 minutes prior to stimulation with Tri-DAP (100 μg/ml) or medium alone. After 2 hours the cells were then stimulated with LPS (100 ng/ml—FIGS. 10 and 12), with the TLR agonist CpG (5 μg/ml—FIGS. 11 and 13) or with medium alone. Supernatants were collected after 24 hours and IL-12p40, IL-23, IL-12p70 and IL-10 concentrations were quantified by ELISA.

N#CC(=C(/N)Sc1ccccc1N)/C(C#N)=C(\N)Sc1ccccc1N [U0126, reference compound]
enhancement of LPS induced IL-12p70 by Tri-DAP (LPS 100 ng/ml): only marginally affected | enhancement of LPS induced IL-23 production by Tri-DAP (LPS 100 ng/ml): suppressed | IL-10 production by Tri-DAP with LPS or with CpG (LPS 100 ng/ml or CpG 5 μg/ml): suppressed
